# Patent US8937056B2, “Multikinase inhibitors for use in the treatment of cancer” (Eisai R&D Management Co., Ltd., priority 2007, dated 2015)
# Where two headings read alike, the source gives them in different places.
# How the values were obtained:
# [1] = target: MEK1 (Homo sapiens, UniProt Q02750); test: Biochemical MEK1 assay (ELISA, ERK2-coated plate); settings: 1 μmol/L ATP
# Method: A biochemical MEK1 assay was carried out to investigate whether compounds of formula (I) or (II), e.g., compounds 029, 091, 106 and 114 are MEK1 inhibitors. Biochemical MEK1 inhibition of the compounds was assessed using an ELISA assay. All assays were performed in a 96 well format. A plate coated with ERK2, a substrate protein for MEK1 was used for biochemical MEK1 assay. In a final volume of 40 μL, MEK1 (25 ng) was incubated with 50 mmol/L HEPES, 20 mmol/L MgCl2, 4 mmol/L MnCl2, and 0.5 mmol/L Na3VO4 in the absence or presence of the test compounds. The reaction was initiated by the addition of 1 μmol/L ATP. After incubation for 40 minutes at 30° C., the reaction mixture was discarded and the plate was then washed 4 times with 0.05% Tween20/PBS. Each well was incubated with 100 μL of 1:4000 diluted phospho-ERK1/2 monoclonal antibody (Cell Signaling, MA) for 1.5 hours at room temperature. The antibody was then discarded and the plate was washed 6 times with 0.05% Tween20/PBS. Finally, 100 μL of 1:2000 diluted of HRP conjugated anti-mouse IgG antibody (Cell Signaling, MA) was added. After incubation for 90 minutes, this antibody was discarded and the plate was washed 8 times with 0.05% Tween20/PBS. Phosphorylated ERK2 was then visualized by peroxidase reaction, and read at 450 nm. FIG. 2A is a table depicting results from MEK1 assays.
# [2] = system: Cell lines which carried a B-RAF V600E mutation; test: Cell growth inhibition in solid cancer cell lines (CellTiter-Glo or methylene blue); format: cell-based; settings: 96 hours, B-RAF V600E mutated cell lines very sensitive
# Method: Compounds 091 and 106, were extensively tested in solid cancer cell lines (shown in FIG. 3 for 18 cell lines for compound 091 and 20 cell lines for compound 106). […] Cell growth was assessed using a CellTiter-Glo® Luminescent Cell Viability Assay (Promega) or a methylene blue assay.
# [3] = system: Colo205 human colon cancer xenografts; test: In vivo antitumor activity in Colo205 xenografts; design: species or system mice; settings: similar study with a different dosing schedule
# Method: A study was carried out to investigate anticancer activity of compounds 091 and 106 in human Colo205 BRAF mutated colon cancer xenografts. The compounds were evaluated against subcutaneous-implanted Colo205 human colon cancer xenografts in female athymic mice.
# (§1) The human colon cancer cell line, Colo205 which has B-RAF (V600E) mutation was transplanted subcutaneously into female nude mice. The experiment consisted of 6 mice per group on the first day of treatment. The compound was administered intravenously for two weekly rounds of five daily injections (q1d×5) with a two-day rest period between the rounds. Compound 091 was administered in a vehicle volume of 0.1 mL/10 g of body weight.
# The general health of the mice was monitored daily. Tumor dimensions and body weights were recorded twice a week starting on the first day of treatment. Tumor weights were calculated using the equation (l×w^2)/2, where 1 and w refer to the larger and smaller dimensions collected at each measurement. When the mean tumor volume reached 140 mm^3, vehicle (cremophor:ethanol:5% glucose; 1:1:8) or the test compound (30 mg/kg) was administered to mice (6/group).
# [4] = system: LOX human melanoma xenografts; test: In vivo antitumor activity in LOX xenografts; design: species or system mice
# Method: A study was carried out to investigate anticancer activity of compounds 091 and 106 in human LOX BRAF mutated melanoma xenografts. The compounds were evaluated against subcutaneous-implanted LOX human melanoma xenografts in female athymic mice.
# as §1, with “human melanoma” for “human colon cancer”, “line, LOX” for “line, Colo205”, “of 8” for “of 6”, “treatment. Compounds were independently” for “treatment. The compound was”, “rounds. Compounds were” for “rounds. Compound 091 was”
# The general health of the mice was monitored daily. Tumor dimensions and body weights were recorded twice a week starting on the first day of treatment. Tumor weights were calculated using the equation (l×w^2)/2, where 1 and w refer to the larger and smaller dimensions collected at each measurement. When the mean tumor volume reached 128 mm^3, vehicle (cremophor:ethanol:5% glucose; 1:1:8) or one of the test compounds (10, 20, 30, or 40 mg/kg) was administered to mice (8/group).
# [5] = system: human hematologic cancer cell lines; test: Antiproliferative effects in hematologic cancer cell lines (MTT assay); format: cell-based; settings: cell lines derived from leukemia, or B-cells such non-Hodgkin's lymphoma, 96 h
# Method: A study was carried out to investigate anticancer activity of compounds 091 and 106 in a panel of human hematologic cancer cell lines in vitro. Antiproliferative effects of compounds 091 and 106 were evaluated in 7 human cancer cell lines representing several different cancer types of hematologic malignancy. […] Cell growth was assessed using the MTT assay.
# [6] = system: Flt-3 receptor; test: Phosphorylation of Flt-3 receptor in MV-4-11 cells (immunoblot); format: cell-based, human; settings: 24 h
# Method: A study was carried out to investigate the ability of compound 106 to inhibit phosphorylation of Flt-3 receptor in a FLT3-mutated (AML) cell line in vitro. MV-4-11 human acute myeloid leukemia (AML) cells (Catalog #CRL-9591, ATCC, Rockville, Md.), which carry an activation mutation of Flt-3, were plated into a […] flasks and incubated for 1 day. Then, compound 106 at concentrations of 0.1 nmol/L-300 nmol/L (or culture medium) were added to each flask and cultured for 24 h. The control dish received cultured medium alone. Cells lysates were prepared using ice cold lysis buffer. In order to detect phospho-Flt-3 protein, MV-4-11 cell lysate proteins were subjected to SDS-PAGE under reducing conditions and immunoblotted with an antibody against phospho-Flt-3 antibody (Catalog #3464, Cell Signaling Technology, Danvers, Mass.). Western blots were probed with secondary IRDye antibodies (LI-COR, Inc., Lincoln, Nebr.). Blotted proteins were visualized using the Odyssey infrared imaging system (LI-COR, Inc., Lincoln, Nebr.). Anti-actin antibody (Catalog #sc-8432, Santa Cruz Biotechnologies, Inc., Santa Cruz, Calif.) was used as a loading control.
# [7] = system: MV-4-11 AML cells; test: MV-4-11 cell proliferation assay (CellTiter-Glo); format: cell-based, human; settings: 96 h
# Method: A study was carried out to investigate the anticancer activity of compound 106 in a FLT-3 mutated (AML) cell line in vitro. The antiproliferative effects of compound 106 were determined in a cell proliferation assay using MV-4-11 AML cells. […] Luminescence was read on the EnVision 2102 Multilabel Counter (Perkin-Elmer/Wallac, Waltham, Mass.). The software, Graphpad Prism (ver. 4, San Diego, Calif.) was used for determination of IC50 values. The raw value for the untreated control represents an average from 4 wells.
# [8] = system: PANC-1 pancreatic cancer cells; test: PANC-1 cell growth, alone or in combination with SN-38 (CellTiter-Glo)
# Method: To determine whether compounds 091 or 106 in combination with SN-38 would enhance the anticancer activity of chemotherapy due to MEKK1 inhibition, PANC-1 human pancreatic cancer cells were examined.
# Antiproliferative effects of SN-38 were evaluated in PANC-1 pancreatic cancer cells in combination with compound 091 or 106. Cultured human cancer cells were placed into 96-well plates and grown in the absence or continuous presence of 0.03-1000 nM SN-38 for 96 h with or without 1 μM of test compound. Cell growth was assessed using CellTiter-Glo® Luminescent Cell Viability Assay (Promega). IC50 values were determined as the concentration of a substance which inhibits cell growth by 50% compared to untreated cell populations.
# [9] = system: Map/Erk kinase (MEK); settings: cited from earlier work
# Chain of MEK1 (Q02750 whole entry): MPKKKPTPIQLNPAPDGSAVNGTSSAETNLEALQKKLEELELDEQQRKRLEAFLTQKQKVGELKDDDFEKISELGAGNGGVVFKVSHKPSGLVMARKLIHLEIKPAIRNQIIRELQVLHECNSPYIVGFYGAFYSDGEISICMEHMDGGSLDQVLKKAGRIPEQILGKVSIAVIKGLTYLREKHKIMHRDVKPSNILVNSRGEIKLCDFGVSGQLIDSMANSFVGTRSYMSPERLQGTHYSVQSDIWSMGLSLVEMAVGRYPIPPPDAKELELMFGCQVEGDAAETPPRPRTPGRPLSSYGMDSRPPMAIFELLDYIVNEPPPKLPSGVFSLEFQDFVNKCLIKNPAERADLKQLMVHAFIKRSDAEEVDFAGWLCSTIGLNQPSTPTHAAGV
smiles,measurement,setting,value
CCNc1cc(O)c2c(c1)/C=C/C[C@H](O)[C@H](O)C(=O)/C=C\[C@@H](C)[C@H](C)OC2=O [Compound 106],MEK1 inhibitory activity,[1],low nM activity
same,"cell growth inhibition, concentration range of sensitivity",[2],low-nM or sub-μM
same,tumor regression from the first day of treatment,[3],70%
same,mice tumor free at the end of study,[4]; 10 mg/kg,5 out of 8
same,mice tumor free at the end of study,[4]; 20 mg/kg,8 out of 8
same,mice tumor free at the end of study,[4]; 40 mg/kg,8 out of 8
same,anticancer activity,"[4]; three dosages, 10, 20, and 40 mg/kg/dose",statistically significant anticancer activity
same,sensitivity of cell growth,[5],sensitive
same,constitutive phosphorylation of Flt-3 receptor,[6]; 10 nmol/L,completely inhibited
same,protein level of phospho-Flt-3,"[6]; 0.1-300 nmol/L, concentration dependent",decreased
same,"IC50, antiproliferative activity",[7],low-nmol/L
same,"effect on PANC-1 cancer cell growth, compound alone","[8]; 1 μM alone, separate experiments (data not shown)",did not affect
COc1cc(O)c2c(c1)/C=C/C[C@H](O)[C@H](O)C(=O)/C=C\C[C@H](C)OC2=O [Compound F152],inhibition of MEK,[9],inhibit
"CCc1c2c(nc3ccc(O)cc13)-c1cc3c(c(=O)n1C2)COC(=O)[C@]3(O)CC [SN-38, reference compound]",IC50,"[8]; read-out: IC50 for cell growth inhibition in combination setting, SN-38 with 1 μM of compound 091 or compound 106, 96 h",16.2 nM
same,IC50,"[8]; read-out: IC50 for cell growth inhibition, SN-38 alone, 96 h",82.5 nM
